Experimental data as given in patent US20250213705A1, “PSMA TARGETING LIGANDS AND METHODS OF USE” (Bright Peak Therapeutics AG, priority 2023, published 2025).

Columns and labels:
human FOLH1 = human FOLH1 (Homo sapiens (Human), UniProt Q04609); assay: SPR analysis of binding kinetics to biotinylated FOLH1 (Biacore 8K); conditions: ligand PSMA; for Kon: association rate; for koff: dissociation rate; for Kd: kinetic 1:1 binding model
Procedure: The interaction of PSMA-binding variants with human FOLH1 was measured with Surface Plasmon Resonance (SPR) technology. Biotinylated FOLH1 was captured at a concentration of 30 μg/mL onto a Streptavidin chip.
Binding kinetics of the analytes were measured with a Biacore 8K instrument in two-fold serial dilutions starting at 500 nM down to 1.95 nM in single cycle kinetic measurements. After each cycle, needles were washed with 50% DMSO. To measure the association to the FOLH1 protein, the samples were injected with a flow rate of 30 μL/min for 90 s, followed by 1200 s buffer only to detect the dissociation. The used running buffer was 1×PBS with 0.05% Tween20 and 2% DMSO. The relative response units (RU, Y-axis) are plotted against time (s, X-axis) and analyzed in a kinetic 1:1 binding model.
In a different setup, biotinylated FOLH1 was captured at a concentration of 0.8 μg/mL and the running buffer was 1×PBS with 0.05% Tween20.

[1] = target: Recombinant Human PSMA/FOLH1 Protein (Homo sapiens (Human), UniProt Q04609); assay: Inhibition assay (Amplex Red glutamic acid/glutamate oxidase, NAAG substrate); type: biochemical; conditions: Target PSMA, average of N replicates; for IC50: PSMA 5 nM, NAAG 40 μM; for Ki: calculated based on Cheng-Prusoff equation
Procedure: Amplex™ Red Glutamic Acid/Glutamate Oxidase Assay Kit Catalog number: A12221 (Thermofisher); Recombinant Human PSMA/FOLH1 Protein, CF (rnd systems); N-Acetyl-Asp-Glu (NAAG) (Sigma Aldrich; 96 well half area plate; Enspire plate reader.
Prepare a working solution of 100 μM Amplex® Red reagent containing 0.25 U/mL HRP, 0.08 U/mL L-glutamate oxidase, 0.5 U/mL 1-glutamate-pyruvate transaminase, 200 μM L-alanine and keep protected from light. […] Final concentration is 5 nM. Transfer 10 μl/well of the inhibitor solution previously prepared in a separate 96 wells/plate.
Pipette 20 μl/well of the working solution prepared above. Incubate the reactions for 30 min at 37° C., protected from light. Because the assay is continuous (not terminated), fluorescence may be measured at multiple time points to follow the kinetics of the reactions. Measure the fluorescence in a fluorescence microplate reader using excitation in the range of 530-560 nm and emission detection at ˜590 nm. Ec50s were determined with GraphPad Prism. Ki is calculated based on Cheng-Prusoff equation.

[2] = target: PSMA+ cells (22rv1 human prostate carcinoma epithelial cell line) (Homo sapiens (Human), UniProt Q04609); assay: Cellular competition assay on PSMA+ cells (flow cytometry, competition with BPT1288), 22rv1; type: cell-based
Sequence of PSMA+ cells (22rv1 human prostate carcinoma epithelial cell line) (Q04609 whole entry): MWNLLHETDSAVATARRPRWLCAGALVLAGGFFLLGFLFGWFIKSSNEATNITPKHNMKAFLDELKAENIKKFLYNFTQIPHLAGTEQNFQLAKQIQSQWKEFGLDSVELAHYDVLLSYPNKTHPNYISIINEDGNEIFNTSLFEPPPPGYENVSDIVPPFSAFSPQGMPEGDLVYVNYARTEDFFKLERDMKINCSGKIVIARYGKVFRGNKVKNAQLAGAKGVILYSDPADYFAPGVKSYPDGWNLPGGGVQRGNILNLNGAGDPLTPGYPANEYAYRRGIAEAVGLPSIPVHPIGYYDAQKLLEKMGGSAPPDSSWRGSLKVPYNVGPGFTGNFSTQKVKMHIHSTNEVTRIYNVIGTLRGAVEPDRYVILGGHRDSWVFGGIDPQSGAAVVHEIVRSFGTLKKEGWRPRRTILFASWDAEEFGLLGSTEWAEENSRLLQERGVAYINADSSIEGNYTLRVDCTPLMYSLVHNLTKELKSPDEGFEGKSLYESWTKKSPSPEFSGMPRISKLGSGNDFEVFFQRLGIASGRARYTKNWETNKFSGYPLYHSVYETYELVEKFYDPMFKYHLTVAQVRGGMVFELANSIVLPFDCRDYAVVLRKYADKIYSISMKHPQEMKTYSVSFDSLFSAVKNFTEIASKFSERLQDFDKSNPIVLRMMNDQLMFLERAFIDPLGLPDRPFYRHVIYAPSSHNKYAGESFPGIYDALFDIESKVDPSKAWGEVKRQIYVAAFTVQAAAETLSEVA
Procedure: On the day of experiment, cells were harvested with Trypsin and washed with assay buffer consisting of 1×PBS supplemented with 2% FBS and stained with viability dye (Biolegend Zombie NIR) diluted 1:1000 in PBS for 20 minutes. After washing and counting, cells were seeded at 50,000 cells/well in a 96 well V bottom polypropylene plate and kept on ice. Twelve 4-fold serial dilutions of analytes were prepared in cold assay buffer and added to cell suspension.
Single-cell AlexaFluor488 fluorescence emission was measured with a flow cytometer and plotted against analyte concentration in X-axis. Half maximal inhibition concentrations (IC50) were calculated based on a variable slope and four parameter analysis using GraphPad PRISM software

Sequence of Recombinant Human PSMA/FOLH1 Protein (Q04609 whole entry): as above
Sequence of human FOLH1 (Q04609 whole entry): as above

| SMILES | Kon (human FOLH1) | koff (human FOLH1) | Kd (human FOLH1) | IC50 [1] | Ki [1] | IC50 [2] |
| --- | --- | --- | --- | --- | --- | --- |
| CC(=O)NCCOCCOCCOCCC(=O)N[C@@H](CCCOc1ccc(F)cc1F)C(=O)NC[C@H]1CC[C@H](C(=O)N[C@@H](Cc2ccc3ccccc3c2)C(=O)NCCCC[C@H](NC(=O)N[C@@H](CCC(=O)O)C(=O)O)C(=O)O)CC1 [Compound 40] | 153000 1.ms | 0.000249 s⁻¹ | 1.62 nM | 155 nM | 1.11 nM |  |
| C=CC[C@H](NC(=O)CCOCCOCCOCCNC(C)=O)C(=O)NC[C@H]1CC[C@H](C(=O)N[C@@H](Cc2ccc3ccccc3c2)C(=O)NCCCC[C@H](NC(=O)N[C@@H](CCC(=O)O)C(=O)O)C(=O)O)CC1 [Compound 41] | 102000 1.ms | 0.000199 s⁻¹ | 1.95 nM | 88.1 nM | 0.63 nM |  |
| CC(=O)NCCOCCOCCOCCC(=O)N[C@@H]1C[C@@H](C(=O)N[C@@H](Cc2ccc3ccccc3c2)C(=O)NCCCC[C@H](NC(=O)N[C@@H](CCC(=O)O)C(=O)O)C(=O)O)N(C(=O)CCCOc2cc(C#N)cc(C#N)c2)C1 (stereo in doubt) [Compound 82] | 72200 1.ms | 0.000381 s⁻¹ | 5.27 nM | 1.8 nM | 0.0129 nM |  |
| CC(=O)NCCOCCOCCOCCC(=O)NC[C@H]1CC[C@H](C(=O)N[C@@H](Cc2ccc(N)cc2)C(=O)NCCCC[C@H](NC(=O)N[C@@H](CCC(=O)O)C(=O)O)C(=O)O)CC1 [Compound 14] | 131000 1.ms | 0.000618 s⁻¹ | 4.71 nM | 286 nM | 2.05 nM |  |
| CC(=O)NCCOCCOCCOCCC(=O)N(CCCCOc1cc(C(F)(F)F)cc(C(F)(F)F)c1)CC(=O)N[C@@H](Cc1ccc2ccccc2c1)C(=O)NCCCC[C@H](NC(=O)N[C@@H](CCC(=O)O)C(=O)O)C(=O)O [Compound 88] | 215000 1.ms | 0.000329 s⁻¹ | 1.53 nM | 63.3 nM | 0.452 nM |  |
| CC(=O)NCCOCCOCCOCCC(=O)NC[C@H]1CC[C@H](C(=O)N[C@@H](Cc2ccc3ccccc3c2)C(=O)NCCCC[C@H](NC(=O)N[C@@H](CCC(=O)O)C(=O)O)C(=O)O)CC1 [Compound 8] |  |  | 0.654 nM | 29.3 nM | 0.21 nM | 2.65 nM |
